The values below come from BindingDB's records for doi:10.1021/jm970499g (Novartis Institute For Medical Sciences, 1998).

Some results are limits rather than exact numbers.

The first experiment deals with Substance-P receptor (rabbit). Kind of experiment: In vitro binding affinity towards Tachykinin receptor 1 to displace [3H][Sar9Met(O2)11]-SP (1 nM) binding to rabbit whole brain membranes.
In the case of `COc1ccccc1CNC(=NC#N)N1CCC[C@H]1C(=O)NC(c1ccccc1)c1ccccc1` [1-[N-(2-Methoxy-benzyl)-N'-cyano-carbamimidoyl]-pyrrolidine-2-carboxylic acid benzhydryl-amide], the IC50 (as a rule, the concentration at which inhibition is half-maximal) was over 50000 nM. Still for that read-out and setting: as for `COc1ccccc1CNC(=S)N1CCC[C@@H]1C(=O)NC(c1ccccc1)c1ccccc1` [(R)-1-(2-Methoxy-benzylthiocarbamoyl)-pyrrolidine-2-carboxylic acid benzhydryl-amide], the figure is over 5000 nM; as for `Nc1ccccc1CNC(=S)N1CCC[C@H]1C(=O)NC(c1ccccc1)c1ccccc1` [(S)-1-(2-Amino-benzylthiocarbamoyl)-pyrrolidine-2-carboxylic acid benzhydryl-amide], over 50000 nM.

`COc1ccccc1CNC(=S)N1CCC[C@H]1C(=O)NCC(c1ccccc1)c1ccccc1` [(S)-1-(2-Methoxy-benzylthiocarbamoyl)-pyrrolidine-2-carboxylic acid (2,2-diphenyl-ethyl)-amide] registered an IC50 of over 5000 nM. On the same count and under the same terms, as for `COc1ccccc1CNC(=S)N1CCC[C@H]1C(=O)N(Cc1ccccc1)Cc1ccccc1` [(S)-1-(2-Methoxy-benzylthiocarbamoyl)-pyrrolidine-2-carboxylic acid dibenzylamide], the figure is over 50000 nM; as for `O=C(NC(c1ccccc1)c1ccccc1)[C@@H]1CCCN1C(=S)NCc1ccccc1` [(S)-1-Benzylthiocarbamoyl-pyrrolidine-2-carboxylic acid benzhydryl-amide], over 5000 nM; as for `COc1ccccc1COC(=O)N1CCC[C@H]1C(=O)NC(c1ccccc1)c1ccccc1` [(S)-2-(Benzhydryl-carbamoyl)-pyrrolidine-1-carboxylic acid 2-methoxy-benzyl ester], over 50000 nM.

The target of a further experiment is Substance-P receptor (rabbit). Described as above. The source holds these as a separate data set.
With `COc1ccccc1CNC(=S)N1CCC[C@H]1C(=O)N[C@H](Cc1ccccc1)C(=O)N(C)Cc1ccccc1`, the Ki (in general, the equilibrium dissociation constant of an inhibitor or competing ligand from its target) worked out at 1280 nM. Still for that read-out and setting: as for `COc1ccccc1CNC(=S)N1CCC[C@H]1C(=O)N[C@@H](Cc1ccccc1)C(=O)N(C)Cc1ccccc1`, the figure is 260 nM. Still for that read-out and setting: as for `O=C(NC(c1ccccc1)c1ccccc1)[C@@H]1CCCN1C(=S)NCc1ccccc1Br` [(S)-1-(2-Bromo-benzylthiocarbamoyl)-pyrrolidine-2-carboxylic acid benzhydryl-amide], the figure is 170 nM; as for `O=C(NC(c1ccccc1)c1ccccc1)[C@@H]1CCCN1C(=S)NCc1ccccc1Cl` [(S)-1-(2-Chloro-benzylthiocarbamoyl)-pyrrolidine-2-carboxylic acid benzhydryl-amide], 170 nM. `O=C(NC(c1ccccc1)c1ccccc1)[C@@H]1CCCN1C(=S)NCc1ccccc1F` [(S)-1-(2-Fluoro-benzylthiocarbamoyl)-pyrrolidine-2-carboxylic acid benzhydryl-amide] showed a Ki of 1270 nM.

With `COc1ccccc1CNC(=S)N1CCC[C@H]1C(=O)NC(c1ccccc1)c1ccccc1` [(S)-1-(2-Methoxy-benzylthiocarbamoyl)-pyrrolidine-2-carboxylic acid benzhydryl-amide], the Ki was 330 nM.
